# Results taken from ChEMBL document CHEMBL4346703, “Structure Overhaul Affords a Potent Purine PI3Kδ Inhibitor with Improved Tolerability” (J Med Chem, 2019).
# Experiments:
# [1] = Plasma clearance in Beagle dog at 0.05 mg/kg; format: ADME, organism-based, Canis lupus familiaris
# [2] = target: PI3-kinase p110-alpha/p85-alpha (Homo sapiens, UniProt P42336); assay: Inhibition of N-terminal His6-tagged recombinant full length human p110alpha/untagged recombinant full length human p85alpha expressed in baculovirus infected Sf21 insect cells using PIP2 as substrate preincubated for 15 mins followed by substrate addition and measured after 1 hr by HTRF assay
# [3] = Intrinsic clearance in Beagle dog at 0.05 mg/kg; format: ADME, organism-based, Canis lupus familiaris; conditions: in vivo
# [4] = Plasma clearance in Wistar Han rat at 0.05 mg/kg; format: ADME, organism-based
# [5] = Half-life in Beagle dog; format: ADME, Canis lupus familiaris; conditions: in vivo
# [6] = Half-life in Wistar Han rat; format: ADME; conditions: in vivo
# [7] = Volume of distribution in Beagle dog; format: ADME, Canis lupus familiaris; conditions: in vivo
# [8] = Unbound volume of distribution in Beagle dog; format: ADME, Canis lupus familiaris; conditions: in vivo
# [9] = Protein binding in Wistar Han rat plasma; format: ADME, cell-free; conditions: read-out: PPB (converted)
# [10] = Volume of distribution in Wistar Han rat; format: ADME; conditions: in vivo
# [11] = Intrinsic clearance in Wistar Han rat at 0.05 mg/kg; format: ADME, organism-based; conditions: in vivo
# [12] = Lipophilicity, log D of the compound; format: physicochemical; conditions: octanol/water
# [13] = Unbound volume of distribution in Wistar Han rat; format: ADME; conditions: in vivo
# [14] = Inhibition of adenosine transporter in human HeLa cells assessed as reduction in [3H]adenosine uptake preincubated for 30 mins followed by [3H]adenosine addition and measured after 60 mins; format: ADME, cell-based
# [15] = Protein binding in Beagle dog plasma; format: ADME, cell-free, Canis lupus familiaris; conditions: read-out: PPB (converted)
# [16] = Oral bioavailability in Wistar Han rat; format: ADME, organism-based; conditions: in vivo
# [17] = target: PI3-kinase p110-delta/p85-alpha (Homo sapiens, UniProt O00329); assay: Inhibition of N-terminal His6-tagged recombinant full length human p110delta/untagged recombinant full length human p85alpha expressed in baculovirus infected Sf21 insect cells using PIP2 as substrate preincubated for 15 mins followed by substrate addition and measured after 1 hr by HTRF assay
# [18] = Plasma clearance in Wistar Han rat at 0.5 mg/kg, iv or 1 mg/kg, po; format: ADME, organism-based
# [19] = target: T1, Phosphatidylinositol 4,5-bisphosphate 3-kinase catalytic subunit delta isoform (Homo sapiens, UniProt O00329); assay: Inhibition of PI3Kdelta in human Ramos cells assessed as reduction in anti-IgM-antibody-induced phosphorylation of AKT at Ser473 residue preincubated for 20 mins followed by anti-IgM antibody stimulation and measured after 30 mins by alphascreen assay; format: cell-based
# T1 sequence (O00329 whole entry): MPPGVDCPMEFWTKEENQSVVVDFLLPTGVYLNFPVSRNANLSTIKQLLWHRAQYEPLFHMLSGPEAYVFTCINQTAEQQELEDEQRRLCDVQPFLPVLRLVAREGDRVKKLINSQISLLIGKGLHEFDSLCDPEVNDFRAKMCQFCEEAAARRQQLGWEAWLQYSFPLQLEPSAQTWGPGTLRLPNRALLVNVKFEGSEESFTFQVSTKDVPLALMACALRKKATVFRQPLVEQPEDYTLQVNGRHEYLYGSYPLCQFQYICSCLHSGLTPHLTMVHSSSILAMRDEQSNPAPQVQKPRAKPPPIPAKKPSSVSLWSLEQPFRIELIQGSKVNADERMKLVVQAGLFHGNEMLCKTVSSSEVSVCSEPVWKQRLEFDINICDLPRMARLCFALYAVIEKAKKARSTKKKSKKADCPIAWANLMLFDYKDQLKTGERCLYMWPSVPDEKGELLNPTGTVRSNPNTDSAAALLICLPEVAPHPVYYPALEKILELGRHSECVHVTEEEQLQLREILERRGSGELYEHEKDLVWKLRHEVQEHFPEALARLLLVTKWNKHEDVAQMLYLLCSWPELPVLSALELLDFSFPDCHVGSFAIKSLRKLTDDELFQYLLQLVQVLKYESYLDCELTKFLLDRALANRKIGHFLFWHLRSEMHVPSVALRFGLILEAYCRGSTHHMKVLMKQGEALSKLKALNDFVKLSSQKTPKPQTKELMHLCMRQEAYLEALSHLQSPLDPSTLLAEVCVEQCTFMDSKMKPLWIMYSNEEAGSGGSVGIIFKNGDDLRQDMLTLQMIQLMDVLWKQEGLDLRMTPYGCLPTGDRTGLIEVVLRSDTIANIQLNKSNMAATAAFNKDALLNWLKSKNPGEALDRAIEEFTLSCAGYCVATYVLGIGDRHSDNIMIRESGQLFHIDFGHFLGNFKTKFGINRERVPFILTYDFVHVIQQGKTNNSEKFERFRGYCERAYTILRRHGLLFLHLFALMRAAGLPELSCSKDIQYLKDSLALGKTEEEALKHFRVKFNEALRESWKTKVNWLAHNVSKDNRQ
# [20] = Intrinsic clearance in Wistar Han rat at 0.5 mg/kg, iv or 1 mg/kg, po; format: ADME, organism-based; conditions: in vivo
# [21] = target: T2, Nuclear receptor subfamily 1 group I member 2 (Homo sapiens, UniProt O75469); assay: Activation of PXR (unknown origin); format: ADME
# T2 sequence (O75469 whole entry): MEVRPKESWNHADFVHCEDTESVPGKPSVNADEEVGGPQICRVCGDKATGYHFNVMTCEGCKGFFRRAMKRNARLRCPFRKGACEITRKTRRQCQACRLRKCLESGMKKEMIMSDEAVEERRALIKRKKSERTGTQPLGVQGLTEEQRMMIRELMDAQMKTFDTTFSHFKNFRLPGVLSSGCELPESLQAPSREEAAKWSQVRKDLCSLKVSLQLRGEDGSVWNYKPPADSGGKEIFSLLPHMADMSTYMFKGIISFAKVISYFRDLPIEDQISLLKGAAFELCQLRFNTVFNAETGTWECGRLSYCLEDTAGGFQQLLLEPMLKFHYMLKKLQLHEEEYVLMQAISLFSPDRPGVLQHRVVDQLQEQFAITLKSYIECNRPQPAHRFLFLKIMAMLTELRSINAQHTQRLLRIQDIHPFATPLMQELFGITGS
# [22] = Plasma clearance in Beagle dog at 0.25 mg/kg, iv or 0.5 mg/kg, po; format: ADME, organism-based, Canis lupus familiaris
# [23] = target: T1, Phosphatidylinositol 4,5-bisphosphate 3-kinase catalytic subunit delta isoform; assay: Inhibition of PI3Kdelta in human whole blood assessed as reduction in anti-CD79b antibody-induced CD69 expression preincubated for 60 mins followed by anti-CD79b antibody stimulation and measured after 3 hrs by FACS analysis; format: tissue-based
# [24] = target: cGMP-dependent 3',5'-cyclic phosphodiesterase (Homo sapiens, UniProt O00408); assay: Inhibition of PDE2 (unknown origin)
# [25] = fAUC in Beagle dog at 30 mg/kg; format: ADME, organism-based, Canis lupus familiaris; conditions: in vivo
# Phosphodiesterase 3 = Phosphodiesterase 3 (Homo sapiens, UniProt Q14432+Q13370); assay: Inhibition of PDE3 (unknown origin); format: protein assay
# [26] = Oral bioavailability in Beagle dog; format: ADME, organism-based, Canis lupus familiaris; conditions: in vivo
# Phosphodiesterase 1 = Phosphodiesterase 1 (Homo sapiens, UniProt P54750+Q01064+Q14123); assay: Inhibition of PDE1 (unknown origin); format: protein assay
# [27] = Stability in rat microsomes in the presence of NADPH; format: ADME, Microsome
# [28] = Toxicity in rat assessed as increase in blood pressure at 750 mg/kg/day; format: organism-based; conditions: in vivo
# [29] = target: T1, Phosphatidylinositol 4,5-bisphosphate 3-kinase catalytic subunit delta isoform; assay: Inhibition of PI3Kdelta in human whole blood assessed as reduction in antihuman IgE antibody-stimulated CD63 expression preincubated for 30 mins followed by antihuman IgE antibody stimulation and measured after 20 mins by FACS analysis; format: tissue-based
# [30] = Toxicity in Beagle dogs assessed as medial necrosis of the arteries by measuring disruption of tunica media by fibrin at 30 mg/kg; format: organism-based, Canis lupus familiaris; conditions: dog, in vivo
# [31] = Toxicity in Beagle dogs assessed as medial necrosis of the arteries by measuring disruption of tunica media by hemorrhage at 30 mg/kg; format: organism-based, Canis lupus familiaris; conditions: dog, in vivo
# [32] = Toxicity in rat assessed as increase in heart rate at 750 mg/kg/day; format: organism-based; conditions: in vivo
# [33] = target: cAMP and cAMP-inhibited cGMP 3',5'-cyclic phosphodiesterase 10A (Homo sapiens, UniProt Q9Y233); assay: Inhibition of PDE10 (unknown origin)
# [34] = Drug metabolism in dog microsomes assessed as N-dealkylation of pyrazole metabolite; format: ADME, Canis lupus familiaris, Microsome
# [35] = Drug metabolism in dog microsomes assessed as oxidation of imidazopyridinone metabolite; format: ADME, Canis lupus familiaris, Microsome
# [36] = fAUC in rat at 750 mg/kg/day; format: ADME, organism-based; conditions: in vivo
# [37] = Protein binding in human plasma; format: ADME, cell-free; conditions: read-out: PPB (converted)
# [38] = fCmax in Beagle dog at 30 mg/kg; format: ADME, organism-based, Canis lupus familiaris; conditions: in vivo
# [39] = fCmax in rat at 750 mg/kg/day; format: ADME, organism-based; conditions: in vivo
# Phosphodiesterase 4 = Phosphodiesterase 4 (Homo sapiens, UniProt P27815+Q08499+Q07343+Q08493); assay: Inhibition of PDE4 (unknown origin); format: protein assay
# [40] = Stability in human microsomes in the presence of NADPH; format: ADME, Microsome
# [41] = Toxicity in Beagle dogs assessed as medial necrosis of the arteries by measuring disruption of tunica media by cellular debris at 30 mg/kg; format: organism-based, Canis lupus familiaris; conditions: dog, in vivo
# Chain of PI3-kinase p110-alpha/p85-alpha (P27986 whole entry): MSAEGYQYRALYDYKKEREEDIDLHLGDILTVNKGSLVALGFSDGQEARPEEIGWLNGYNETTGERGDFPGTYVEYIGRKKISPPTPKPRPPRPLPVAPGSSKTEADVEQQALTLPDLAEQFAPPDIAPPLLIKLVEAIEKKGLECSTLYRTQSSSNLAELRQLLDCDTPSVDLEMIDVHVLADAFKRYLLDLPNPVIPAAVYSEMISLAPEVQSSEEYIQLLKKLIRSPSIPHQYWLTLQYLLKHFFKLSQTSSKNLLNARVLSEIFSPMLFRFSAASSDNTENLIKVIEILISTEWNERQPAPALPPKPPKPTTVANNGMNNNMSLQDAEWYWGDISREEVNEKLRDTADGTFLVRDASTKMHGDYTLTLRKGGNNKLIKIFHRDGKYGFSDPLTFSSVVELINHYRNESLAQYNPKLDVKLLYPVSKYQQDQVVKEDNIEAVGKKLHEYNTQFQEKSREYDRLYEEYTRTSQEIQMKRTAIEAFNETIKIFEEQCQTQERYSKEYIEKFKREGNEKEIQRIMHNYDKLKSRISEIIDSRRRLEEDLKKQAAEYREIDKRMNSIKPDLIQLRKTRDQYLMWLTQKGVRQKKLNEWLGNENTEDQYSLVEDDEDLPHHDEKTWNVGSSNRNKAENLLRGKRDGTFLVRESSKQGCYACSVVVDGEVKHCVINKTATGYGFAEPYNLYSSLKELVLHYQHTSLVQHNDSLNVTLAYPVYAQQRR
# Chain of PI3-kinase p110-alpha/p85-alpha (P42336 whole entry): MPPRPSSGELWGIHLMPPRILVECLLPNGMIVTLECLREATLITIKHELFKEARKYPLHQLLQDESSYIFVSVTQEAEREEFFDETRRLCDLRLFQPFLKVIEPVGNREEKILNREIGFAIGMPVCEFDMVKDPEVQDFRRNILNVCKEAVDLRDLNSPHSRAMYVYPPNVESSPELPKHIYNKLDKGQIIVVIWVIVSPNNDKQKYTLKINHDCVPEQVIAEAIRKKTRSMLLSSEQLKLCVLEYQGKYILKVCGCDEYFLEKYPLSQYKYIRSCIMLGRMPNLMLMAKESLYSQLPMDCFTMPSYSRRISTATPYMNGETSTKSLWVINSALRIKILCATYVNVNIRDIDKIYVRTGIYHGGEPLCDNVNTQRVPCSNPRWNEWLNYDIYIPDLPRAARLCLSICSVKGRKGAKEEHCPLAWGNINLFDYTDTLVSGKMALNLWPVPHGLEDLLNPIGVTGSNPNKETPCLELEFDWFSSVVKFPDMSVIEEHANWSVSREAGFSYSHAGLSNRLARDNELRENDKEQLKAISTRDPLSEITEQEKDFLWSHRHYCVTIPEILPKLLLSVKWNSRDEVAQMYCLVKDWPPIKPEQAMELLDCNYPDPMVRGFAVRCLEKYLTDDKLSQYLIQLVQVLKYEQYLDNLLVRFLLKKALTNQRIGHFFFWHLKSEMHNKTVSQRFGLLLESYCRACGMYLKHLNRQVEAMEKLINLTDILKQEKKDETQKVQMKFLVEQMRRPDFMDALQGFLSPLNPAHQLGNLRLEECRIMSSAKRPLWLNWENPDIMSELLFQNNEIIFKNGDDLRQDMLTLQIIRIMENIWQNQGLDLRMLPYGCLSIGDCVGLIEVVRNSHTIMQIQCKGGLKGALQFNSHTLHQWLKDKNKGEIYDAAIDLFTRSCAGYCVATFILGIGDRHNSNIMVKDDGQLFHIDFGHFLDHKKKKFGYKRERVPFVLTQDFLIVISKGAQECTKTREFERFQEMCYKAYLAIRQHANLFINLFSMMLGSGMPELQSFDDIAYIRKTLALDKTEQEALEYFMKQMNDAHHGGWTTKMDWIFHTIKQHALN
# Chain of PI3-kinase p110-delta/p85-alpha (P27986 whole entry, one chain of several): as the sequence (P27986 whole entry) above
# Chain of cGMP-dependent 3',5'-cyclic phosphodiesterase (O00408 whole entry): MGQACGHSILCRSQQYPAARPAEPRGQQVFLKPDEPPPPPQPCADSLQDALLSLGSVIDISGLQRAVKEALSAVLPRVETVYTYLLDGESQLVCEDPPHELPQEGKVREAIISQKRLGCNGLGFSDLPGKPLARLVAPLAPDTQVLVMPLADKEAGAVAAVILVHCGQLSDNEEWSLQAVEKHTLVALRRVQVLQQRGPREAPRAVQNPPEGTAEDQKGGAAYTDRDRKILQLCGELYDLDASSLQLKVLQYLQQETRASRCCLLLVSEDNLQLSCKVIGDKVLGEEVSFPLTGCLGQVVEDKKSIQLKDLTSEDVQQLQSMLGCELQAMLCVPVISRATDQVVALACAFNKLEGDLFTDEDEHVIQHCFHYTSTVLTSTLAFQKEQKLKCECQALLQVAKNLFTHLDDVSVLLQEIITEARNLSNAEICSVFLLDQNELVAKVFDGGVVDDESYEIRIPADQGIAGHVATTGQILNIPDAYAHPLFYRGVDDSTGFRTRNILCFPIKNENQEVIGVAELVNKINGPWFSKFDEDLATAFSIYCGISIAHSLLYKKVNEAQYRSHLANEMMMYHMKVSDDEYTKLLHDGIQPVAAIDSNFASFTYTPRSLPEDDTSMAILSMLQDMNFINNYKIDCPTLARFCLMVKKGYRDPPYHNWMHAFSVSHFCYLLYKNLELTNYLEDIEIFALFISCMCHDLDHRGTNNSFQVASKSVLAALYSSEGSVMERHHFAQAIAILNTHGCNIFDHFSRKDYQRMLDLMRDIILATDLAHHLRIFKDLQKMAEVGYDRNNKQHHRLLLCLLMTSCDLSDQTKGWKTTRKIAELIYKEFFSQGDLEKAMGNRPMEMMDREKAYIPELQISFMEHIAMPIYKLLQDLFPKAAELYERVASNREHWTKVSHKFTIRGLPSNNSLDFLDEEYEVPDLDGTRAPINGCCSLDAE
# Chain of cAMP and cAMP-inhibited cGMP 3',5'-cyclic phosphodiesterase 10A (Q9Y233 whole entry): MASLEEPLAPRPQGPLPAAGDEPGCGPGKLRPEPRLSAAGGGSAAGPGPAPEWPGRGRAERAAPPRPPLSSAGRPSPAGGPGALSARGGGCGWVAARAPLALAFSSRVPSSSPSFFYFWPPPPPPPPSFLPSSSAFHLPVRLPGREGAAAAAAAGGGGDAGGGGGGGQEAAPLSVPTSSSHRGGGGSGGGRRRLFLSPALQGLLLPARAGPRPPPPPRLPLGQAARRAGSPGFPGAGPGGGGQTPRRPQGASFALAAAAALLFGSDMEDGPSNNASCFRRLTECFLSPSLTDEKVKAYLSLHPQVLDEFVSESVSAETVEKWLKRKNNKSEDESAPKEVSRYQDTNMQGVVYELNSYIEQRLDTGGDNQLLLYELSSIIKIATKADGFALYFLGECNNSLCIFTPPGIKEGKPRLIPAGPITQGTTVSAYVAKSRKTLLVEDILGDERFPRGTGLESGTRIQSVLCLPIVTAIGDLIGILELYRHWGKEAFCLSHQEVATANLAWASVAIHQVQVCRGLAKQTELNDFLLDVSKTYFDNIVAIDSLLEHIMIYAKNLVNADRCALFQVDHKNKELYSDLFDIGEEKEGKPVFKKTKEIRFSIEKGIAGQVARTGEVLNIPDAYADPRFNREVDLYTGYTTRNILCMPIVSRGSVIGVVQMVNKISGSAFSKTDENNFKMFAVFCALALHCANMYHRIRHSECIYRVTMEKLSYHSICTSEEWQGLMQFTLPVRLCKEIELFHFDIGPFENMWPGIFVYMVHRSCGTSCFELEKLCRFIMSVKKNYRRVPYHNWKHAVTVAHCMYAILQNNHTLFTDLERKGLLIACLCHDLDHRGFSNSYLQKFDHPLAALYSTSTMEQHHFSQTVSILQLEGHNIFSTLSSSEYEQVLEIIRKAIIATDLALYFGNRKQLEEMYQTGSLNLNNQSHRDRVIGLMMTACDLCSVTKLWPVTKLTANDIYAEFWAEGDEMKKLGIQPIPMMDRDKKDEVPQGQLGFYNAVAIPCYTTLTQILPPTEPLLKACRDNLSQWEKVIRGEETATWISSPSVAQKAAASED
compound,measurement,setting,value
CC[C@H](Nc1ncnc2c1nc(-c1cnn(CC)c1C)n2C)C(=O)N1C[C@@H](C)O[C@@H](C)C1,clearance,[1],7.9 mL/min/kg
same,IC50,[2],262 nM
same,CL,[3],25 mL/min/kg
same,clearance,[4],50 mL/min/kg
same,half-life,[5],1.2 h
same,half-life,[6],0.3 h
same,Vd,[7],0.9 L/kg
same,Vdu,[8],2 L/kg
same,fraction unbound,[9],0.42
same,Vd,[10],1.1 L/kg
same,CL,[11],290 mL/min/kg
same,logD,[12],1.7
same,Vdu,[13],3 L/kg
same,IC50,[14],3130 nM
same,fraction unbound,[15],0.42
CCn1ncc(-c2nc3c(O[C@H]4CCN(C(=O)C5CC5)C4)ncnc3n2C)c1C,bioavailability,[16],52%
same,clearance,[1],4.1 mL/min/kg
same,IC50,[2],169 nM
same,CL,[3],8 mL/min/kg
same,half-life,[5],2.7 h
same,IC50,[17],5.3 nM
same,half-life,[6],0.4 h
same,Vd,[7],0.9 L/kg
same,Vdu,[8],2 L/kg
same,clearance,[18],23 mL/min/kg
same,IC50,[19],190 nM
same,fraction unbound,[9],0.33
same,Vd,[10],0.8 L/kg
same,logD,[12],1.2
same,Vdu,[13],2 L/kg
same,IC50,[14],7480 nM
same,CL,[20],98 mL/min/kg
same,fraction unbound,[15],0.59
CCn1ncc(-c2nc3c(N4CCC(n5c(=O)[nH]c6ncccc65)CC4)ncnc3n2C)c1C,Activity,[21],Not Active
same,clearance,[22],46 mL/min/kg
same,bioavailability,[16],76%
same,IC50,[2],450 nM
same,IC50,[23],810 nM
same,half-life,[5],1.1 h
same,IC50,[24],4900 nM
same,fAUC,[25],4.4 µM·h
same,IC50,[17],6.3 nM
same,half-life,[6],1.2 h
same,Vd,[7],4.6 L/kg
same,Vdu,[8],90 L/kg
same,clearance,[18],5.8 mL/min/kg
same,IC50,Phosphodiesterase 3,1030 nM
same,bioavailability,[26],61%
same,IC50,Phosphodiesterase 1,2350 nM
same,Stability,[27],Stable
same,IC50,[19],63 nM
same,Activity,[28],20 mmHg
same,fraction unbound,[9],0.1
same,IC50,[29],790 nM
same,Activity,[30],Non-Toxic
same,Activity,[31],Non-Toxic
same,Activity,[32],100 bpm
same,IC50,[33],4010 nM
same,Drug metabolism,[34],Metabolite_Detected
same,Drug metabolism,[35],Metabolite_Detected
same,Vd,[10],0.4 L/kg
same,fAUC,[36],123 µM·h
same,logD,[12],1.4
same,fraction unbound,[37],0.21
same,fCmax,[38],0.33 µM
same,Vdu,[13],4 L/kg
same,IC50,[14],72 nM
same,fCmax,[39],8 µM
same,CL,[20],60 mL/min/kg
same,IC50,Phosphodiesterase 4,1190 nM
same,Stability,[40],Stable
same,Activity,[41],Non-Toxic
same,fraction unbound,[15],0.05
